Reference: ChEMBL document CHEMBL1133598, “Synthesis, molecular modeling, and pharmacological testing of bis-quinolinium cyclophanes: potent, non-peptidic blockers of the apamin-sensitive Ca(2+)-activated K(+) channel” (J Med Chem, 2000)

What was measured:
[1] = biological target: Small conductance calcium-activated potassium channel (Rattus norvegicus, UniProt P70604+P70606+P70605); experiment: The blocking of apamin-sensitive [Ca2+]-activated K+ (SKCa) channel was assessed by the compounds ability to inhibit the after-hyperpolarization in cultured rat superior cervical ganglion neurons; format: functional
[2] = biological target: Small conductance calcium-activated potassium channel (Rattus norvegicus) (UniProt P70604+P70606+P70605); experiment: The ratio of compound concentrations and dequalinium that cause 50% inhibition of the after-hyperpolarization; format: functional

Row | SMILES | IC50 [1] | EMR [2]
1 | c1ccc2c(c1)c1cc[n+]2Cc2ccc3c(c2)Cc2cc(ccc2-3)C[n+]2ccc(c3ccccc32)NCc2ccc(cc2)-c2ccc(cc2)CN1 | 120 nM | 0.15
2 | c1cc2nc(c1)-c1ccc(cc1)C[n+]1ccc(c3ccccc31)NCc1ccc(cc1)Cc1ccc(cc1)CNc1cc[n+](c3ccccc13)Cc1ccc-2cc1 | 380 nM | 0.88
3 | c1ccc2c(c1)c1cc[n+]2Cc2ccc(cc2)Cc2ccc(cc2)C[n+]2ccc(c3ccccc32)NCCCCCCCCCCN1 [UCL-1530] | 80 nM | 0.16
4 | c1cc2cc(c1)CNc1cc[n+](c3ccccc13)Cc1ccc(cc1)C[n+]1ccc(c3ccccc31)NC2 | 70 nM | 0.18
5 | C1=C\c2ccc(cc2)C[n+]2ccc(c3ccccc32)NCCCCCCCCCCNc2cc[n+](c3ccccc23)Cc2ccc/1cc2 | 150 nM | 0.29
6 | c1ccc2c(c1)c1cc[n+]2CCCCCCCCCC[n+]2ccc(c3ccccc32)NCc2ccc(cc2)-c2ccc(cc2)CN1 | 210 nM | 0.25
7 | c1ccc2c(c1)c1cc[n+]2Cc2ccc(cc2)-c2ccc(cc2)C[n+]2ccc(c3ccccc32)NCCCCCCCCCCN1 | 170 nM | 0.26
8 | c1ccc2c(c1)c1cc[n+]2Cc2ccc(cc2)-c2ccc(cc2)C[n+]2ccc(c3ccccc32)NCc2ccc(cc2)Cc2ccc(cc2)CN1 | 150 nM | 0.26
9 | c1ccc2c(c1)c1cc[n+]2Cc2ccc(cc2)Cc2ccc(cc2)C[n+]2ccc(c3ccccc32)NCc2ccc(cc2)Cc2ccc(cc2)CN1 | 260 nM | 0.31
10 | c1ccc2c(c1)c1cc[n+]2Cc2ccc(cc2)CCc2ccc(cc2)C[n+]2ccc(c3ccccc32)NCCCCCCCCCCN1 | 180 nM | 0.57
11 | c1ccc2c(c1)c1cc[n+]2Cc2ccc(cc2)-c2ccc(cc2)C[n+]2ccc(c3ccccc32)NCc2ccc(cc2)-c2ccc(cc2)CN1 | 430 nM | 0.89
12 | C1=C\c2ccc(cc2)C[n+]2ccc(c3ccccc32)NCc2ccc(cc2)Cc2ccc(cc2)CNc2cc[n+](c3ccccc23)Cc2ccc/1cc2 | 250 nM | 1.1
13 | Oc1c2cc(I)cc1C[n+]1ccc(c3ccccc31)NCc1ccc(cc1)CNc1cc[n+](c3ccccc13)C2 | 100 nM | 0.16
14 | c1ccc2c(c1)c1cc[n+]2Cc2ccc3c(c2)Cc2cc(ccc2-3)C[n+]2ccc(c3ccccc32)NCCCCCCCCCCN1 | 90 nM | 0.11
15 | c1ccc2c(c1)c1cc[n+]2Cc2ccc(cc2)C[n+]2ccc(c3ccccc32)NCc2ccc(cc2)CN1 | 28 nM | 0.05
16 | Cc1cc(N)c2ccccc2[n+]1CCCCCCCCCC[n+]1c(C)cc(N)c2ccccc21.[Cl-].[Cl-] [DEQUALINIUM CHLORIDE] | 650 nM | 1
17 | c1cc2cc(c1)-c1cccc(c1)C[n+]1ccc(c3ccccc31)NCCCCCCCCCCNc1cc[n+](c3ccccc13)C2 | 110 nM | 0.28
18 | Oc1c2cccc1C[n+]1ccc(c3ccccc31)NCc1ccc(cc1)CNc1cc[n+](c3ccccc13)C2 | 60 nM | 0.14
19 | Nc1cc[n+](Cc2ccc(-c3ccc(C[n+]4ccc(N)c5ccccc54)cc3)cc2)c2ccccc12 | 380 nM | 0.4
20 | COc1c2cccc1C[n+]1ccc(c3ccccc31)NCc1ccc(cc1)CNc1cc[n+](c3ccccc13)C2 | 25 nM | 0.019
21 | c1ccc2c(c1)c1cc[n+]2Cc2ccc(cc2)Cc2ccc(cc2)C[n+]2ccc(c3ccccc32)NCc2ccc(cc2)-c2ccc(cc2)CN1 | 280 nM | 0.8
22 | c1cc2cc(c1)C[n+]1ccc(c3ccccc31)NCc1ccc(cc1)CNc1cc[n+](c3ccccc13)C2 | 3 nM | 0.01

Second part, the molecule after the results:

Row | IC50 [1] | EMR [2] | SMILES
23 |  | 1.32 | Nc1cc[n+](Cc2cccc(C[n+]3ccc(N)c4ccccc43)c2)c2ccccc12
24 | 310 nM | 0.33 | Nc1cc[n+](Cc2ccc3c(c2)Cc2cc(C[n+]4ccc(N)c5ccccc54)ccc2-3)c2ccccc12
25 | 2800 nM | 3.7 | Nc1cc[n+](Cc2ccc(C[n+]3ccc(N)c4ccccc43)cc2)c2ccccc12
26 | 410 nM | 0.71 | Nc1cc[n+](Cc2ccc(CCc3ccc(C[n+]4ccc(N)c5ccccc54)cc3)cc2)c2ccccc12
27 | 130 nM | 0.22 | c1cc2cc(c1)CNc1cc[n+](c3ccccc13)Cc1cccc(c1)C[n+]1ccc(c3ccccc31)NC2
28 | 290 nM | 0.55 | Nc1cc[n+](Cc2cccc(-c3cccc(C[n+]4ccc(N)c5ccccc54)c3)c2)c2ccccc12
29 | 450 nM | 0.39 | Nc1cc[n+](Cc2ccc(Cc3ccc(C[n+]4ccc(N)c5ccccc54)cc3)cc2)c2ccccc12
30 | 360 nM | 0.59 | Nc1cc[n+](Cc2ccc(-c3cccc(-c4ccc(C[n+]5ccc(N)c6ccccc65)cc4)n3)cc2)c2ccccc12
31 | 190 nM | 0.24 | Nc1cc[n+](Cc2ccc(/C=C\c3ccc(C[n+]4ccc(N)c5ccccc54)cc3)cc2)c2ccccc12
